Results as given in patent US9006240B2, “Method for assay on the effect of vascularization inhibitor” (Eisai R&D Management Co., Ltd., priority 2005, dated 2015).

How the values were obtained:
PC-3 = test: Anti-tumor effect in PC-3 subcutaneous xenograft model; type: in vivo, human; settings: PC-3 xenograft in nude mice; methanesulfonate 100 mg/kg twice a day, one week, oral; day 8 vs day 1
Description: (§1) Human tumor cell lines MDA-MB-231, MDA-MB-468, DU145, AsPC-1 (these four lines were purchased from ATCC), A549 (purchased from Dainippon Pharmaceutical Co., Ltd.), Lovo, SK-OV-3, H526, PC-3, DLD-1, HCT116 (these six lines were purchased from ATCC), SEKI, HMV-1 (these two lines were purchased from JCRB cell bank, National Institute of Biomedical Innovation), LOX (purchased from AntiCancer) and A375 (purchased from Dainippon Pharmaceutical Co., Ltd.) were cultured with RPMI1640 (containing 10% FBS) in a 5% CO2 gas incubator until they reached about 80% confluence. After culturing, cells from each line were recovered with trypsin-EDTA by conventional procedures. The cells were suspended in phosphate buffer to prepare a cell suspension of 1×10^8 cells/ml or 5×10^7 cells/ml. […] The major axis and minor axis of tumor were measured with a Digimatic Caliper (Mitsutoyo). Then, tumor volume, relative tumor volume and ΔT/C were calculated using the following formulas: Tumor volume (TV)=tumor major axis (mm)×tumor minor axis^2 (mm^2)/2 Relative tumor volume (RTV)=tumor volume on the measurement day/tumor volume on the starting day of administration ΔT/C=(tumor volume at day 8 of administration groups−tumor volume at day 1 of administration groups)/(tumor volume at day 8 of control group−tumor volume at day 1 of control group)×100 […]

A375 = test: Anti-tumor effect in A375 subcutaneous xenograft model; type: in vivo, human; settings: A375 xenograft in nude mice; methanesulfonate 100 mg/kg twice a day, one week, oral; day 8 vs day 1
Description: as §1

MDA-MB-231 = test: Anti-tumor effect in MDA-MB-231 subcutaneous xenograft model; type: in vivo, human; settings: MDA-MB-231 xenograft in nude mice; methanesulfonate 100 mg/kg twice a day, one week, oral; day 8 vs day 1
Description: as §1

DLD-1 = test: Anti-tumor effect in DLD-1 subcutaneous xenograft model; type: in vivo, human; settings: DLD-1 xenograft in nude mice; methanesulfonate 100 mg/kg twice a day, one week, oral; day 8 vs day 1
Description: as §1

[1] = test system: human non-small cell lung cancer cell strain (PC-9); test: Combined application of VEGF receptor kinase inhibitor and EGF inhibitor in PC-9 subcutaneous xenograft model; type: in vivo; settings: PC-9 xenograft, nude mice, 4 weeks, control 7.51 ± 1.69
Description: Combined Application of VEGF Receptor Kinase Inhibitor and EGF Inhibitor in Human Non-Small Cell Lung Cancer Cell Strain (PC-9) Subcutaneous Xenograft Model (In Vivo) […] Then, cells were recovered with trypsin-EDTA. A cell suspension (5×10^7 cells/nil) was prepared with phosphate buffer. The resultant cell suspension was subcutaneously transplanted into the flank of nude mice (0.1 ml/mouse). […] The major axis and minor axis of tumor were measured with a Digimatic Caliper (Mitsutoyo). Then, tumor volume and relative tumor volume were calculated using the following formulas: […]

MDA-MB-468 = test: Anti-tumor effect in MDA-MB-468 subcutaneous xenograft model; type: in vivo, human; settings: MDA-MB-468 xenograft in nude mice; methanesulfonate 100 mg/kg twice a day, one week, oral; day 8 vs day 1
Description: as §1

LOX = test: Anti-tumor effect in LOX subcutaneous xenograft model; type: in vivo, human; settings: LOX xenograft in nude mice; methanesulfonate 100 mg/kg twice a day, one week, oral; day 8 vs day 1
Description: as §1

[2] = test system: human non-small cell lung cancer cell line (A549); test: Combined application of VEGF receptor kinase inhibitor and EGF inhibitor in A549 subcutaneous xenograft model; type: in vivo; settings: nude mice, 4 weeks, control 9.94 ± 0.77
Description: Combined Application of VEGF Receptor Kinase Inhibitor and EGF Inhibitor in Human Non-Small Cell Lung Cancer Cell line (A549) Subcutaneous Xenograft Model (In Vivo) […] Then, cells were recovered with trypsin-EDTA. A cell suspension (5×10^7 cells/ml) was prepared with phosphate buffer containing 50% matrigel. The resultant cell suspension was subcutaneously transplanted into the flank of nude (0.1 ml/mouse). From day 10 of transplantation, 4-(3-chloro-4-(cyclopropylaminocarbonyl)aminophenoxy)-7-methoxy-6-quinolinecarboxamide (a methanesulfonate) and erlotinib were orally administered independently or in combination. With respect to 4-(3-chloro-4-(cyclopropylaminocarbonyl)aminophenoxy)-7-methoxy-6-quinolinecarboxamide (a methanesulfonate), it was administered at 3 mg/kg, 10 mg/kg or 30 mg/kg; once a day; for 4 weeks. With respect to erlotinib, it was administered at 50 mg/kg, once a day, for 4 weeks. The major axis and minor axis of tumor were measured with a Digimatic Caliper (Mitsutoyo). Then, tumor volume and relative tumor volume were calculated using the following formulas: […]

SEKI = test: Anti-tumor effect in SEKI subcutaneous xenograft model; type: in vivo, human; settings: SEKI xenograft in nude mice; methanesulfonate 100 mg/kg twice a day, one week, oral; day 8 vs day 1
Description: as §1

H526 = test: Anti-tumor effect in H526 subcutaneous xenograft model; type: in vivo, human; settings: H526 xenograft in nude mice; methanesulfonate 100 mg/kg twice a day, one week, oral; day 8 vs day 1
Description: as §1

DU145 = test: Anti-tumor effect in DU145 subcutaneous xenograft model; type: in vivo, human; settings: DU145 xenograft in nude mice; methanesulfonate 100 mg/kg twice a day, one week, oral; day 8 vs day 1
Description: as §1

HMV-1 = test: Anti-tumor effect in HMV-1 subcutaneous xenograft model; type: in vivo, human; settings: HMV-1 xenograft in nude mice; methanesulfonate 100 mg/kg twice a day, one week, oral; day 8 vs day 1
Description: as §1

HCT116 = test: Anti-tumor effect in HCT116 subcutaneous xenograft model; type: in vivo, human; settings: HCT116 xenograft in nude mice; methanesulfonate 100 mg/kg twice a day, one week, oral; day 8 vs day 1
Description: as §1

[3] = Compound A 10 mg/kg oral once a day
[4] = Erlotinib 50 mg/kg oral once a day

For `COc1cc2nccc(Oc3ccc(NC(=O)NC4CC4)c(Cl)c3)c2cc1C(N)=O` [Compound A, 4-(3-chloro-4-(cyclopropylaminocarbonyl)aminophenoxy)-7-methoxy-6-quinolinecarboxamide], the ΔT/C (PC-3) was > 10%, the ΔT/C (A375) was > 10% and the ΔT/C (MDA-MB-231) was < −30%. The ΔT/C (DLD-1) was > 10%, the “Relative Tumor Volume at Day 29 Mean ± Standard Deviation” value [1, 3] was 2.24 ± 0.54 and the ΔT/C (MDA-MB-468) was < −30%. The ΔT/C (LOX) was > 10%, the “Relative Tumor Volume at Day 29 Mean ± Standard Deviation” value ([2]; Compound A 3 mg/kg oral once a day) was 4.34 ± 0.80 and the “Relative Tumor Volume at Day 29 Mean ± Standard Deviation” value [2, 3] was 2.65 ± 0.45. The “Relative Tumor Volume at Day 29 Mean ± Standard Deviation” value ([2]; Compound A 30 mg/kg oral once a day) was 1.65 ± 0.31, the ΔT/C (SEKI) was > 10% and the ΔT/C (H526) was > 10%. The ΔT/C (DU145) was < −30%, the ΔT/C (HMV-1) was > 10% and the ΔT/C (HCT116) was > 10%.
For `C#Cc1cccc(Nc2ncnc3cc(OCCOC)c(OCCOC)cc23)c1` [Erlotinib, 4-(3-ethynylphenylamino)-6,7-bis(2-methoxyethoxy)-quinazoline, reference compound], the “Relative Tumor Volume at Day 29 Mean ± Standard Deviation” value [1, 4] was 3.30 ± 0.19 and the “Relative Tumor Volume at Day 29 Mean ± Standard Deviation” value [2, 4] was 5.71 ± 1.84.
